{"source": "patent US20210284691A1", "about": "“CBX8 CHROMDOMAIN INHIBITORS AND THE USES THEREOF” (Purdue Research Foundation, priority 2019, published 2021)", "format_in_all_cases": "cell-based", "key": {"[1]": {"biological_target": "T1, CBX2 binding to chromatin (Homo sapiens, UniProt Q14781)", "T1 construct": "endogenous in cells; host or cells: HEK293T (A21); K562 (A22)", "T1 sequence (Q14781 whole entry)": "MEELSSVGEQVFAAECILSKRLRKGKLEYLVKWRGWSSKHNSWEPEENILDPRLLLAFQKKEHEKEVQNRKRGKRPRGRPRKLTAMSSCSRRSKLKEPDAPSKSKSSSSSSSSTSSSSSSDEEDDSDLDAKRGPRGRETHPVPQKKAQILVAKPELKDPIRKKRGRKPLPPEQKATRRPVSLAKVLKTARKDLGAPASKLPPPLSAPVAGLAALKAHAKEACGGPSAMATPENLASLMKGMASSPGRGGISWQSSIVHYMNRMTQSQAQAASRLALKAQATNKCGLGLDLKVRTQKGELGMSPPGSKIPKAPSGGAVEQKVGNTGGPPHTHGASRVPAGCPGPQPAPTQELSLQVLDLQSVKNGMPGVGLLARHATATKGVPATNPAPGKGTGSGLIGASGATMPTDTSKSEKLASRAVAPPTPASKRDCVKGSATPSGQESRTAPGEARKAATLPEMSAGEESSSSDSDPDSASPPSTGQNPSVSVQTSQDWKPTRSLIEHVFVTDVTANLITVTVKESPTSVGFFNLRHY", "assay": "ChIP-qPCR in K562 cells", "description": "(§1) FIGS. 11A-11E: Cellular Activity of CBX2 ChD Ligand. FIG. 11A) Relative cytosolic access of SW2_152F conjugated to a chloroalkane (SW2_152F-CA, SEQ ID NO: 28) was evaluated using chloroalkane penetration assay (CAPA). The half maximal cell penetration value (CP50) of SW2_152F-CA was determined for SW2_152F-CA and CBX8 inhibitor SW2_110A-CA. FIG. 11B) Chemoprecipitations from HEK293T nuclear lysates using biotinylated SW2_152F (SW2_152F-B, SEQ ID NO: 29) were analyzed using immunoblot analysis. FIG. 11C) Analysis and quantification of SW2_152F in abrogating bulk binding of endogenous CBX proteins to chromatin in HEK293T cells by Sequential Salt Extraction. FIG. 11D). Chromatin immunoprecipitation (ChIP) from K562 cells using antibodies against IgG, H3K27me3, CBX2 and CBX8 was followed by quantitative PCR of genomic regions near Tm9SF4 (negative locus), TCF21, Fyn-2, and PAX7. Cells were treated with 10 μM SW2_152F for 4 h prior to harvest. FIG. 11E) Chromatin immunoprecipitation (ChIP) in Hs68 fibroblast cells using antibodies against IgG, CBX7, and CBX8 followed by quantitative PCR of genomic regions at LMNB2 (negative locus), CCND2, and RUNX3. Cells were treated with 100 μM SW2_152F for 4 h prior to harvest. For all qPCR, error bars represent SEM n=3 biological replicates, p-values were calculated using two-tailed Student's t-test, * p<0.05, **=p<0.01, ***=p<0.001, ****=p<0.0001.\n(§2) ChIP-qPCR. After validating selectivity using lysate and bulk chromatin, we wanted to determine whether the inhibitor can disrupt CBX2 binding to chromatin in live cells. We used chromatin immunoprecipitation (ChIP) followed by quantitative PCR (ChIP-qPCR) of sites with CBX2, CBX8 and H3K27me3 enrichment in K562 ChIP-Seq datasets in ENCODE (M. Azkanaz, et al., Elife 2019). We evaluated effects of compound treatment at both 10 μM and 100 μM SW2_152F. […] In order to evaluate SW2_152F activity against a paralog with no binding to SW2_152F in vitro, CBX7 ChIP-qPCR was performed in Hs68 fibroblast cells, which have no detectable CBX2 expression (H. Pemberton, et al., Genome Biol. 2014)."}, "[2]": {"biological_target": "T2, CBX8 binding to chromatin (Homo sapiens, UniProt Q9HC52)", "T2 construct": "endogenous in cells; host or cells: Hs68 fibroblasts (A16); HEK293T (A19); K562 (A23)", "T2 sequence (Q9HC52 1-389)": "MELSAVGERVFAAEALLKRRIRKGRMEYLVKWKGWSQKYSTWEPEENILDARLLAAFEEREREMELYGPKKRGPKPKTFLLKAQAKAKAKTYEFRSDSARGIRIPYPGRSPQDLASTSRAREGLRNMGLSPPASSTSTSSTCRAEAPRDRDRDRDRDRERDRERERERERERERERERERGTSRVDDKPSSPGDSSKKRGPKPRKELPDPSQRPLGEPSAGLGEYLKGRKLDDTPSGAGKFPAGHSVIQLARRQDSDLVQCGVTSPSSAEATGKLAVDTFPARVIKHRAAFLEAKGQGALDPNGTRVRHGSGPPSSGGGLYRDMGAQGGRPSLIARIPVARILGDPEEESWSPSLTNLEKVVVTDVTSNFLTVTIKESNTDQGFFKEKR", "assay": "ChIP-qPCR in K562 cells", "description": "as §1, §2"}, "[3]": {"system": "KLK3/TMPRSS2/AR/CBX2 expression", "assay": "Transcriptional fold change in LNCaP_NED cells", "conditions": "10 μM or 50 μM, 48 hours", "from_the_text": "FIG. 12A). Neuroendocrine differentiation (NED) of prostate cancer induced by androgen deprivation. Representative pictures of LNCaP cells treated with normal media or charcoal-stripped serum (CSS) media for 6 days to induce neuroendocrine differentiation (LNCaP_NED). FIG. 12B). Transcriptional fold changes of KLK3/TMPRSS2/ENO2/CHGA were quantified normalized to control gene YWHAZ upon CSS media treatment for 6 or 9 days. FIG. 12C). Western blotting of CBX paralogs in LNCaP and LNCaP_NED cells generated from 14-day CSS treatment. FIG. 12D). Cell proliferation of LNCaP_NED following 5 days incubation with 2 or 10 μM SW2_152F. DMSO was used as negative control. FIG. 12E). LNCaP_NED cells were treated with 10 μM SW2_152F for 24 h-96 h. Cell morphology pictures were captured starting from 24 h. Average cell size were plotted at 24 h or 48 h for both DMSO group and compound treated group. FIG. 12F). LNCaP_NED cells were treated with 10 μM or 50 μM SW2_152F for 48 hours. […] Binding of H3K27me3 and CBX2 at specific genomic sites (KLK3/TMPRSS2, e: enhancer, p: promoter) were evaluated using chromatin immunoprecipitation-qPCR. For all experiments in the figure, error bars represent SEM n=3 biological replicates, p-values were calculated using two-tailed Student's t-test, *=p<0.05, **=p<0.01, ***=p<0.001, ****=p<0.0001. […]"}, "[4]": {"system": "H3K27me3, AR, ENO2, N-Myc, CBX2 protein levels", "assay": "Western blotting of protein expression in VCaP_NED cells", "from_the_text": "FIG. 12A). Neuroendocrine differentiation (NED) of prostate cancer induced by androgen deprivation. Representative pictures of LNCaP cells treated with normal media or charcoal-stripped serum (CSS) media for 6 days to induce neuroendocrine differentiation (LNCaP_NED). FIG. 12B). Transcriptional fold changes of KLK3/TMPRSS2/ENO2/CHGA were quantified normalized to control gene YWHAZ upon CSS media treatment for 6 or 9 days. FIG. 12C). Western blotting of CBX paralogs in LNCaP and LNCaP_NED cells generated from 14-day CSS treatment. FIG. 12D). Cell proliferation of LNCaP_NED following 5 days incubation with 2 or 10 μM SW2_152F. DMSO was used as negative control. FIG. 12E). LNCaP_NED cells were treated with 10 μM SW2_152F for 24 h-96 h. Cell morphology pictures were captured starting from 24 h. Average cell size were plotted at 24 h or 48 h for both DMSO group and compound treated group. FIG. 12F). LNCaP_NED cells were treated with 10 μM or 50 μM SW2_152F for 48 hours. Transcriptional fold change of genes (KLK3/TMPRSS2/AR/CBX2) were normalized to YWHAZ in LNCaP_NED cells with SW2_152F treatment or DMSO. FIG. 12G). LNCaP cells were treated with DMSO. LNCaP_NED cells were treated with DMSO, 10 μM GSK343 or 10 μM SW2_152F for 48 hours. Whole cell lysates were extracted for western blotting. FIG. 12H). LNCaP_NED cells were treated with DMSO or 10 μM SW2_152F for 4 hours before harvest. Binding of H3K27me3 and CBX2 at specific genomic sites (KLK3/TMPRSS2, e: enhancer, p: promoter) were evaluated using chromatin immunoprecipitation-qPCR. For all experiments in the figure, error bars represent SEM n=3 biological replicates, p-values were calculated using two-tailed Student's t-test, *=p<0.05, **=p<0.01, ***=p<0.001, ****=p<0.0001.\nIn another androgen-sensitive prostate cancer cell line, VCaP, 6 days of androgen deprivation decreases AR protein expression and increases ENO2, N-Myc, H3K27me3 and CBX2 protein expression (FIG. 12G), similar to published findings (Y. Zhang, et al., 2018). Using this NED cell line (VCaP_NED), we tested how addition of EZH2 inhibitor GSK343 or CBX2 inhibitor SW2_152F affects protein expression changes during NED."}}, "note": "Square brackets hold non-standard residues; d marks the D form. Peptide text beside a SMILES is read from it. * marks the point of attachment. Tyr(3-Cl) = N[C@@H](Cc1ccc(O)c(Cl)c1)C(=O)O; Benzoyl(3,5-Cl2) = O=C(c1cc(Cl)cc(Cl)c1)*; Lys(Et2) = CCN(CC)CCCC[C@H](N)C(=O)O; Gly(cPent) = N[C@H](C(=O)O)C1CCCC1; NH(propargyl) = C#CCN*", "data": [{"smiles": "C#CCNC(=O)[C@H](CO)NC(=O)[C@H](CCCCN(CC)CC)NC(=O)[C@@H](NC(=O)[C@@H](NC(=O)[C@H](Cc1ccc(O)c(Cl)c1)NC(=O)c1cc(Cl)cc(Cl)c1)C1CCCC1)[C@@H](C)CC", "note": "[SW2_152F] ({Benzoyl(3,5-Cl2)}-[Tyr(3-Cl)][Gly(cPent)]I[Lys(Et2)]S-{NH(propargyl)})", "values": [{"measurement": "CBX2 binding, ChIP-qPCR", "setting": "[1]; 10 μM, 4 h", "value": "significant reduction of CBX2 binding"}, {"measurement": "CBX2 binding, ChIP-qPCR", "setting": "[1]; 100 μM", "value": "significant reduction of both CBX2 and CBX8 binding"}, {"measurement": "CBX8 binding, ChIP-qPCR", "setting": "[2]; 10 μM, 4 h", "value": "not CBX8 binding"}, {"measurement": "CBX8 binding, ChIP-qPCR", "setting": "[2]; 100 μM", "value": "significant reduction of both CBX2 and CBX8 binding"}, {"measurement": "CBX2 expression", "setting": "[3]", "value": "remained unchanged"}, {"measurement": "expression of AR and AR-target genes (TMPRSS2 and KLK3)", "setting": "[3]", "value": "significantly increased"}, {"measurement": "H3K27me3 levels", "setting": "[4]; 10 μM, 48 hours", "value": "does not"}, {"measurement": "AR, ENO2 and N-Myc expression", "setting": "[4]; compared to DMSO", "value": "increase AR and decrease ENO2 and N-Myc expression"}]}]}
